This assay addresses T1, human TLR9 (Homo sapiens, UniProt Q9NR96).
T1 construct: host or cells: HEK293 (HEK-Blue hTLR9)
T1 sequence (Q9NR96 26-1032): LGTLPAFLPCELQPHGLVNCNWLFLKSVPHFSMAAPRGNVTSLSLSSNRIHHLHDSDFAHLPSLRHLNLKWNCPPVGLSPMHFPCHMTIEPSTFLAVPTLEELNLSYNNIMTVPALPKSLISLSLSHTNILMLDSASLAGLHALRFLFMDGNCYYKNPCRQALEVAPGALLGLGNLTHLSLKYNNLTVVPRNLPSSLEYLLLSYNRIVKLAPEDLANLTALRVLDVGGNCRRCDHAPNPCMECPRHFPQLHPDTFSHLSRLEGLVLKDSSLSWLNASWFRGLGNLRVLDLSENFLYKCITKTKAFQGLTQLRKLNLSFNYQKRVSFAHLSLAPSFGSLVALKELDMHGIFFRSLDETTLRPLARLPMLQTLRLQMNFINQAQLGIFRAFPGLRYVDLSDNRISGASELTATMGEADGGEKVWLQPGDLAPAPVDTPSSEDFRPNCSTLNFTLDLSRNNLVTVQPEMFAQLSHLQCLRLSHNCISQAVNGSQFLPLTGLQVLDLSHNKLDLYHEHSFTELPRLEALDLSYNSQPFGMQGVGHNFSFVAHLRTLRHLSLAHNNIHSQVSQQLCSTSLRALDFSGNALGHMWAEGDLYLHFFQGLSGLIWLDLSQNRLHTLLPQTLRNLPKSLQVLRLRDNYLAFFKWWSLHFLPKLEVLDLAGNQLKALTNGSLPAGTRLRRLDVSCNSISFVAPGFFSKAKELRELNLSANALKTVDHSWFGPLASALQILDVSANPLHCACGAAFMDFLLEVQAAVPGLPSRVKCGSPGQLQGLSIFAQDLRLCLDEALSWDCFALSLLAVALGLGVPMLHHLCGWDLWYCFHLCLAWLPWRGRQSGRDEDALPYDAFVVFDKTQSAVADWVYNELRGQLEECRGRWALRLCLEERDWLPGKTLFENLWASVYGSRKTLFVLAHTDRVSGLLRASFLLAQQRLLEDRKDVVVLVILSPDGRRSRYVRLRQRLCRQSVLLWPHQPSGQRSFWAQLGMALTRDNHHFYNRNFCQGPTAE
The experiment in a line: HEK293-Blue-hTLR-9 cells assay. In kind it is cell-based. The following applies: HEK293-Blue-hTLR9 cells, ODN2006 stimulation, 20 hrs, SEAP reporter; read-out: HEK/hTLR9 IC50. The text has this:
A stable HEK293-Blue-hTLR-9 cell line was purchased from InvivoGen (Cat. #: hkb-htlr9, San Diego, California, USA). These cells were originally designed for studying the stimulation of human TLR9 by monitoring the activation of NF-κB. A SEAP (secreted embryonic alkaline phosphatase) reporter gene was placed under the control of the IFN-β minimal promoter fused to five NF-κB and AP-1-binding sites. The SEAP was induced by activating NF-κB and AP-1 via stimulating HEK-Blue hTLR9 cells with TLR9 ligands. Therefore the reporter expression was declined by TLR9 antagonist under the stimulation of a ligand, such as ODN2006 (Cat. #: tlrl-2006-1, Invivogen, San Diego, California, USA), for incubation of 20 hrs. The cell culture supernatant SEAP reporter activity was determined using QUANTI-Blue™ kit (Cat. #: rep-qb1, Invivogen, San Diego, California, USA) at a wavelength of 640 nm, a detection medium that turns purple or blue in the presence of alkaline phosphatase.
HEK293-Blue-hTLR9 cells were incubated at a density of 250,000˜450,000 cells/mL in a volume of 170 μL in a 96-well plate in Dulbecco's Modified Eagle's medium (DMEM) containing 4.5 g/L glucose, 50 U/mL penicillin, […], 2 mM L-glutamine, 10% (v/v) heat-inactivated fetal bovine serum with addition of 20 μL test compound in a serial dilution in the presence of final DMSO at 1% and 10 μL of 20 uM ODN2006 in above DMEM, perform incubation under 37° C. in a CO2 incubator for 20 hrs. Then 20 μL of the supernatant from each well was incubated with 180 μL Quanti-blue substrate solution at 37° C. for 2 h and the absorbance was read at 620˜655 nm using a spectrophotometer. The signaling pathway that TLR9 activation leads to downstream NF-κB activation has been widely accepted, and therefore similar reporter assay was modified for evaluating TLR9 antagonist.

On to `C[C@@H]1CN(c2ccc(C#N)c3ncccc23)C[C@@H]2C[C@H](Nc3ccc(C[C@@H]4CNCCO4)cc3)CCN21` [Example 21, 5-[(4R,8R,9aS)-4-methyl-8-[4-[[(2R)-morpholin-2-yl]methyl]anilino]-1,3,4,6,7,8,9,9a-octahydropyrido[1,2-a]pyrazin-2-yl]quinoline-8-carbonitrile], for which the IC50 amounted to 86 nM.
To `[2H]c1ccc2c(N3C[C@@H]4C[C@H](Nc5ccc(C[C@@H]6CNCCO6)cc5)CCN4[C@H](C)C3)ccc(C#N)c2n1` [Example 22, 5-[(4R,8R,9aS)-4-methyl-8-[4-[[(2R)-morpholin-2-yl]methyl]anilino]-1,3,4,6,7,8,9,9a-octahydropyrido[1,2-a]pyrazin-2-yl]-2-deuterio-quinoline-8-carbonitrile] belongs 84 nM; to `C[C@@H]1CN(c2ccc(C#N)c3ncccc23)C[C@@H]2C[C@H](c3ccc(N4CCOC[C@@H](N)C4)nc3)CCN21` [Example 23, 5-[(4R,8R,9aS)-8[6-[(6S)-6-amino-1,4-oxazepan-4-yl]-3-pyridyl]-4-methyl-1,3,4,6,7,8,9,9a-octahydropyrido[1,2-a]pyrazin-2-yl]quinoline-8-carbonitrile], 75 nM; to `C[C@@H]1CN(c2ccc(C#N)c3ncccc23)C[C@@H]2C[C@@H](c3ccc(C4CNCCO4)cc3)CCN21` (stereo partly drawn) [Example 24, 5-[(4R,8S,9aS)-4-methyl-8-(4-morpholin-2-ylphenyl)-1,3,4,6,7,8,9,9a-octahydropyrido[1,2-a]pyrazin-2-yl]quinoline-8-carbonitrile], 82 nM.
Then `C[C@@H]1CN(c2ccc(C#N)c3ncccc23)C[C@@H]2C[C@@H](c3ccc(CC4CNCCO4)cc3)CCN21` (stereo partly drawn) [Example 26, 5-[(4R,8S,9aS)-4-methyl-8-[4-(morpholin-2-ylmethyl)phenyl]-1,3,4,6,7,8,9,9a-octahydropyrido[1,2-a]pyrazin-2-yl]quinoline-8-carbonitrile], with 95 nM.
To `C[C@@H]1CN(c2ccc(C#N)c3ncccc23)C[C@@H]2C[C@H](c3ccc([C@@H]4CNCCO4)cc3)CCN21` [Example 27, 5-[(4R,8R,9aS)-4-methyl-8-[4-[(2R)-morpholin-2-yl]phenyl]-1,3,4,6,7,8,9,9a-octahydropyrido[1,2-a]pyrazin-2-yl]quinoline-8-carbonitrile] belongs 72 nM; to `CO[C@H]1CN(c2ccc(O[C@H]3CCN4[C@@H](C3)CN(c3ccc(C#N)c5ncccc35)C[C@H]4C)cn2)C[C@H]1N` [Example 28, 5-[(4R,8S,9aS)-8-[[6-[(3R,4S)-3-amino-4-methoxy-pyrrolidin-1-yl]-3-pyridyl]oxy]-4-methyl-1,3,4,6,7,8,9,9a-octahydropyrido[1,2-a]pyrazin-2-yl]quinoline-8-carbonitrile], 44 nM; to `C[C@@H]1CN(c2ccc(C#N)c3ncccc23)C[C@@H]2C[C@@H](Oc3cncc(N4CCNCC4)c3)CCN21` [Example 29, 5-[(4R,8S,9aS)-4-methyl-8-[(5-piperazin-1-yl-3-pyridyl)oxy]-1,3,4,6,7,8,9,9a-octahydropyrido[1,2-a]pyrazin-2-yl]quinoline-8-carbonitrile], 89 nM.
Turning to `CO[C@@H]1CN(c2ccc(C3CN([C@@H]4CCN5[C@@H](C4)CN(c4ccc(C#N)c6ncccc46)C[C@H]5C)C3)cc2)C[C@H]1N` [Example 30, 5-[(4R,8R,9aS)-8-[3-[4-[(3R,4R)-3-amino-4-methoxy-pyrrolidin-1-yl]phenyl]azetidin-1-yl]-4-methyl-1,3,4,6,7,8,9,9a-octahydropyrido[1,2-a]pyrazin-2-yl]quinoline-8-carbonitrile], the IC50 came to 78 nM.
Then `CO[C@H]1CN(c2ccc(C3CN([C@@H]4CCN5[C@@H](C4)CN(c4ccc(C#N)c6ncccc46)C[C@H]5C)C3)cc2)C[C@H]1N` [Example 32, 5-[(4R,8R,9aS)-8-[3-[4-[(3R,4S)-3-amino-4-methoxy-pyrrolidin-1-yl]phenyl]azetidin-1-yl]-4-methyl-1,3,4,6,7,8,9,9a-octahydropyrido[1,2-a]pyrazin-2-yl]quinoline-8-carbonitrile], with 33 nM.
To `[2H]c1ccc2c(N3C[C@@H]4C[C@H](Nc5ccc(C[C@H]6CNCCO6)cc5)CCN4[C@H](C)C3)ccc(C#N)c2n1` [Example 34, 5-[(4R,8R,9aS)-4-methyl-8-[4-[[(2S)-morpholin-2-yl]methyl]anilino]-1,3,4,6,7,8,9,9a-octahydropyrido[1,2-a]pyrazin-2-yl]-2-deuterio-quinoline-8-carbonitrile] belongs 57 nM.
In the case of `[2H]c1ccc2c(N3C[C@@H]4C[C@@H](N5CC(c6ccc(N7C[C@@H](N)[C@H](OC)C7)cc6)C5)CCN4[C@H](C)C3)ccc(C#N)c2n1` [Example 36], the IC50 stood at 32 nM.
As to `[2H]c1ccc2c(N3C[C@@H]4C[C@H](N5CCN(c6ccncc6)CC5)CCN4[C@H](C)C3)ccc(C#N)c2n1` [Example 37, 5-[(4R,8R,9aS)-4-methyl-8-[4-(4-pyridyl)piperazin-1-yl]-1,3,4,6,7,8,9,9a-octahydropyrido[1,2-a]pyrazin-2-yl]-2-deuterio-quinoline-8-carbonitrile], the IC50 was 34 nM.

Values taken from patent publication US12421229B2, “Hydropyrido[1,2-α]pyrazine compounds for the treatment of autoimmune disease” (Hoffmann-La Roche Inc., priority 2019, dated 2025).
